Data set [1] is described as follows: Solubility of nepafenac at reflux temperature in crystallization solvent. Type of data set: physicochemical. The conditions noted are these: thermodynamic from solid, read-out: Solubility. As for the experimental part:
General procedure: Nepafenac was dissolved under magnetical stirring and at reflux in a solvent (See Table 1). The solution was cooled to room temperature under stirring. The solid was filtered and dried. The different conditions and the obtained results are described in Table 1 below.

Data set [2] can be described thus: Density by glass pycnometer in n-heptane. Type of data set: physicochemical. The conditions noted are these: experimental. The procedure: Density of nepafenac samples was determined at 25° C. using a 50 mL glass pycnometer. […] The density of the nepafenac sample (ρs) can be determined from the known density of n-heptane (ρH: 0.685 g/cm^3), the weight of the pycnometer filled only with n-heptane (WH^0, the weight of the filled pycnometer containing both nepafenac and n-heptane (WS+H), and the weight of nepafenac (WS):
Density of nepafenac samples was determined for three times, being the listed result the mean of the three values available for each sample.

Data set [3] in a line: Solubility statements (water, n-heptane). Type of data set: physicochemical. The conditions noted are these: n-heptane at the working temperature (25° C.).
For data set [4] the following is noted: stated as known; cited from earlier work.

The values below come from patent US20100234469A1, “New Crystals Of A Benzoylbenzeneacetamide Derivative” (Medichem, S.A., priority 2009, published 2010).

For orientation: solubility means the concentration that dissolves in the medium under given conditions.

In brackets after ≈: the same amount, converted by molar mass. Where two headings read alike, the source gives them in different places.

Consider `NC(=O)Cc1cccc(C(=O)c2ccccc2)c1N` [nepafenac, 2-amino-3-benzoylbenzeneacetamide, reference compound], for which the solubility was 21 mg/mL (≈ 82.6 mM) in data set [1] (2-propanol, organic solvent or mixture, in 2-propanol at reflux temperature); 30 to 80 mg/mL (≈ 118 to 315 mM) in data set [1] (mixtures of 2-propanol with up to 40% of water, organic solvent or mixture, in mixtures of 2-propanol with up to 40% of water at reflux temperature); 0.7 mg/mL (≈ 2.75 mM) in data set [1] (water, 100 °C, water, in water at reflux temperature). This molecule also yielded a True density in data set [2] of 1.33 g/mL. The Solubility in n-heptane result in data set [3] is on record as “practically insoluble”. Moreover, in data set [4], the Solubility in water entry is recorded as “practically insoluble”.
